From US9732078B2, “Therapeutic use of imidazopyridine derivatives” (SANOFI, priority 2012, dated 2017)

Legend:
Type in all cases: cell-based
[1] = test system: TCC97-7 bladder cancer cells carrying the Ser249Cys mutation of FGF receptor 3; assay: Reduction of intracellular ATP content of TCC97-7 cells (Cell Titer-Glo, 3 days, serum-supplemented medium); details: TCC97-7 cells in presence of serum
Experimental: Evaluation of the Capacity of the FGF-R Antagonists to Reduce the ATP Content of TCC97-7 Bladder Cancer Cells Carrying the Ser249Cys Mutation of FGF Receptor 3, Cultured in a Serum-Supplemented Medium
To do this, 3000 cells are seeded in 50 μl of complete medium (Ham-F/12, 1% FCS, […], non-essential amino acids, sodium pyruvate, 1% insulin/transferrin/selenium, hydrocortisone). 16 hours later, 50 μl of the various compounds are added at 0.2, 2, 20 and 60 μM after dilution in complete culture medium in order to obtain final concentrations of 0.1, 1, 10 and 30 μM. After 3 days, the ATP content of the cells is measured using the Cell Titer-Glo® Luminescent Cell Viability Assay kit (Promega, France) according to the supplier's recommendations. The percentage inhibition of the amount of intracellular ATP is calculated by considering the ATP content of the cells cultured in the absence of antagonist to be 0% inhibition. 100% inhibition would correspond to a well in which the ATP content is zero.

[2] = test system: TCC97-7 bladder cancer tumour cells carrying the Ser249Cys mutation of FGF receptor 3; assay: Inhibition of serum-induced proliferation of TCC97-7 bladder cancer cells (count of Hoechst 33342-labelled nuclei after 3 days); details: TCC97-7 cells in presence of serum
Experimental: To do this, 2000 cells are seeded in the morning in 50 μl of complete medium (Ham-F/12, 1% FCS, 2 mM glutamine, non-essential amino acids, sodium pyruvate, 1% insulin/transferrin/selenium, hydrocortisone). In the evening, 50 μl of the various compounds are added at 0.02, 0.2, 2 or 20 μM after dilution in complete culture medium in order to obtain final concentrations of 0.01, 0.1, 1 and 10 μM. After 3 days, the cell proliferation is evaluated by measuring the number of nuclei at the bottom of each well corresponding to a number of cells. The nuclei are detected by means of labelling with Hoechst 33342 (Invitrogen, ref H3570). 100 μl of Hoechst 33342 diluted to 1/5000th in PBS are added to each well for 30 min at ambient temperature on non-fixed cells. The nuclei are detected by fluorescence at 350 nm at ×2 magnification with an Operetta (PerkinElmer) using the Acapella (PerkinElmer) imaging software and analysed using the Columbus (PerkinElmer) image analysis software. The percentage inhibition of the cell proliferation is calculated by considering the number of nuclei present in the wells in which the TCC97-7 cells are cultured in the absence of FGF-R antagonists to be 0% inhibition. 100% inhibition would correspond to a well no longer containing cells.

[3] = Cytotoxic effect: percentage of permeabilized (very fluorescent, Hoechst 33342) TCC97-7 cells; details: human, read-out: Cytotoxicity (% of permeable cells)
Experimental: (§1) In parallel to their antiproliferative capacity, the potential cytotoxic effect of the FGF-R antagonists is measured by means of quantifying the number of cells of which the membranes are permeabilized. The appearance of pores in the plasma membrane of the cells corresponds to a state of cell death which enables the Hoechst 33342 to penetrate more easily into the cell. This is reflected by a very strong increase in the amount of fluorescence detected in the nuclei. The percentage of cells in a state of cell death is calculated by the ratio between the number of very fluorescent nuclei to the total number of nuclei, multiplied by 100. The observations are carried out in the same way as the quantification of the nuclei for the cell proliferation.

[4] = test system: TCC97-7 bladder cancer tumour cells carrying the Ser249Cys mutation of FGF receptor 3; assay: as above; details: 3 days
Experimental: as §1

Row | Structure (SMILES) | Inhibition of the amount of intracellular ATP (%) ([1]; 0.1 μM) | Inhibition of the amount of intracellular ATP (%) ([1]; 1 μM) | Inhibition of the amount of intracellular ATP (%) ([1]; 10 μM) | Inhibition of proliferation (%) ([2]; 0.01 μM) | Inhibition of proliferation (%) ([2]; 0.1 μM) | Inhibition of proliferation (%) ([2]; 1 μM) | Inhibition of proliferation (%) ([2]; 10 μM) | Cytotoxicity (% of permeable cells) ([4]; 0.01 μM) [%] | Cytotoxicity (% of permeable cells) ([4]; 0.1 μM) [%] | Cytotoxicity (% of permeable cells) ([4]; 1 μM) [%] | Cytotoxicity (% of permeable cells) ([4]; 10 μM) [%] | other results
1 | Cn1c(=O)n(Cc2ccc(F)cc2)c(=O)c2cc(C(=O)c3nc(-c4cccnc4)c4ccccn34)ccc21 [compound 112, 3-(4-Fluorobenzyl)-1-methyl-6-[(1-pyridin-3-ylimidazo[1,5-a]pyridin-3-yl)carbonyl]quinazoline-2,4(1H, 3H)-dione] |  |  |  |  |  |  |  |  |  |  |  | inhibition at 0.1 µM ([1]; 72 h, 0.1 μM, read-out: Inhibition of the amount of intracellular ATP (%)): -3%; inhibition at 1 µM ([1]; 72 h, 1 μM, read-out: Inhibition of the amount of intracellular ATP (%)): 51%; inhibition at 10 µM ([1]; 72 h, 10 μM, read-out: Inhibition of the amount of intracellular ATP (%)): 88%; inhibition at 0.01 µM ([2]; 72 h, 0.01 μM): 8%; inhibition at 0.1 µM ([2]; 72 h, 0.1 μM): 18%; inhibition at 1 µM ([2]; 72 h, 1 μM): 61%; inhibition at 10 µM ([2]; 72 h, 10 μM): 84%; cytotoxicity at 3 days, 0.01 µM ([3]; 0.01 μM): 4%; cytotoxicity at 3 days, 0.1 µM ([3]; 0.1 μM): 4%; cytotoxicity at 3 days, 1 µM ([3]; 1 μM): 16%; cytotoxicity at 3 days, 10 µM ([3]; 10 μM): 11%
2 | Cc1ccc(Cn2c(=O)c3cc(C(=O)c4nc(-c5cccnc5)c5ccccn45)ccc3n(C)c2=O)s1 [compound 220] | 6 | 10 | 16 | 4 | 3 | 13 | 49 | 6 | 5 | 5 | 11 | Inhibition of the amount of intracellular ATP (%) ([1]; 30 μM): 60%
3 | CCCn1c(=O)n(CCOc2ccc(F)cc2)c(=O)c2cc(C(=O)c3nc(-c4cccc(C(=O)[O-])c4)c4ccccn34)ccc21.[Na+] [compound 221, Sodium salt of 3-[3-({3-[2-(4-fluorophenoxy)ethyl]-1-propyl-2,4-dioxo-1,2,3,4-tetrahydroquinazolin-6-yl}carbonyl)imidazo[1,5-a]pyridin-1-yl]benzoic acid] | −2 | 7 | 73 | 5 | 27 | 80 | 85 | 4 | 5 | 6 | 7 | 
4 | CCCn1c(=O)n(Cc2ccc(C)s2)c(=O)c2cc(C(=O)c3nc(-c4cccc(C(=O)[O-])c4)c4ccccn34)ccc21.[Na+] [compound 224] | −1 | 20 | 83 | 3 | 0 | 27 | 82 | 3 | 3 | 4 | 9 | 
5 | Cn1c(=O)n(Cc2ccc(F)cc2)c(=O)c2cc(C(=O)c3ncc4ccccn34)ccc21 [compound 226] | −1 | 5 | 41 | 3 | 8 | 28 | 73 | 5 | 6 | 10 | 25 | 
6 | CCCn1c(=O)n(Cc2ccc(F)cc2)c(=O)c2cc(C(=O)c3nc(-c4cnc(N(C)C)nc4)c4ccccn34)ccc21 [compound 232] | 7 | 8 | 45 | −6 | 1 | 20 | 79 | 3 | 3 | 4 | 23 | 
7 | Cc1ccc(Cn2c(=O)c3cc(C(=O)c4nc(-c5cccc(C(=O)[O-])c5)c5ccccn45)ccc3n(C)c2=O)s1.[Na+] [compound 291] | 8 | 27 | 71 | 1 | 5 | 40 | 81 | 2 | 2 | 2 | 4 | 
